{
  "source": "ChEMBL document CHEMBL1148098",
  "about": "“Neosiphoniamolide A, a novel cyclodepsipeptide, with antifungal activity from the marine sponge Neosiphonia superstes” (1995)",
  "format_in_all_cases": "functional",
  "key": {"[1]": {"system": "Phytophthora citrophthora", "assay": "Antifungal activity against Phytophthora citrophthora assessed as inhibition of mycelium growth"}, "Phytophthora cinnamomi": {"system": "Phytophthora cinnamomi", "assay": "Antifungal activity against Phytophthora cinnamomi assessed as inhibition of mycelium growth"}, "[2]": {"system": "Globisporangium rostratum", "assay": "Antifungal activity against Pythium rostratum assessed as inhibition of mycelium growth"}, "Phytopythium vexans": {"system": "Phytopythium vexans", "assay": "Antifungal activity against Pythium vexans assessed as inhibition of mycelium growth"}, "Botrytis cinerea": {"system": "Botrytis cinerea", "assay": "Antifungal activity against Botrytis cinerea assessed as inhibition of mycelium growth"}, "Pyricularia oryzae": {"system": "Pyricularia oryzae", "assay": "Antifungal activity against Pyricularia oryzae assessed as inhibition of mycelium growth"}, "Fusarium": {"system": "Fusarium", "assay": "Antifungal activity against Fusarium roseum assessed as inhibition of mycelium growth"}, "Alternaria alternata": {"system": "Alternaria alternata", "assay": "Antifungal activity against Alternaria alternata assessed as inhibition of mycelium growth"}, "Rhizoctonia solani": {"system": "Rhizoctonia solani", "assay": "Antifungal activity against Rhizoctonia solani assessed as inhibition of mycelium growth"}, "Oculimacula yallundae": {"system": "Oculimacula yallundae", "assay": "Antifungal activity against Pseudocercosporella herpotrichoides assessed as inhibition of mycelium growth"}, "Parastagonospora nodorum": {"system": "Parastagonospora nodorum", "assay": "Antifungal activity against Septoria nodorum assessed as inhibition of mycelium growth"}, "Helminthosporium": {"system": "Helminthosporium", "assay": "Antifungal activity against Helminthosporium gramineum assessed as inhibition of mycelium growth"}, "Ustilago nuda": {"system": "Ustilago nuda", "assay": "Antifungal activity against Ustilago nuda assessed as inhibition of mycelium growth"}},
  "data": [
    {"smiles": "C/C1=C\\[C@H](C)C[C@H](C)OC(=O)[C@H](C(C)C)NC(=O)[C@@H](Cc2ccc(O)c(I)c2)N(C)C(=O)CNC(=O)[C@@H](C)C1", "note": "[NEOSIPHONIAMOLIDE A]", "values": [
      {"measurement": "IC90", "setting": "[1]", "result": "> 5", "unit": "µg/mL"},
      {"measurement": "IC90", "setting": "Phytophthora cinnamomi", "result": "> 5", "unit": "µg/mL"},
      {"measurement": "IC90", "setting": "[2]", "result": "> 5", "unit": "µg/mL"},
      {"measurement": "IC90", "setting": "Phytopythium vexans", "result": "> 5", "unit": "µg/mL"},
      {"measurement": "IC90", "setting": "Botrytis cinerea", "result": "> 5", "unit": "µg/mL"},
      {"measurement": "IC90", "setting": "Pyricularia oryzae", "result": 5, "unit": "µg/mL"},
      {"measurement": "IC90", "setting": "Fusarium", "result": "> 5", "unit": "µg/mL"},
      {"measurement": "IC90", "setting": "Alternaria alternata", "result": "> 5", "unit": "µg/mL"},
      {"measurement": "IC90", "setting": "Rhizoctonia solani", "result": "> 5", "unit": "µg/mL"},
      {"measurement": "IC90", "setting": "Oculimacula yallundae", "result": "> 5", "unit": "µg/mL"},
      {"measurement": "IC90", "setting": "Parastagonospora nodorum", "result": "> 5", "unit": "µg/mL"},
      {"measurement": "IC90", "setting": "Helminthosporium", "result": 5, "unit": "µg/mL"},
      {"measurement": "IC90", "setting": "Ustilago nuda", "result": "> 5", "unit": "µg/mL"}
    ]},
    {"smiles": "CO[C@H]1CC2=CC(=O)O[C@@H]([C@H](C)[C@@H](OC)C[C@H](OC)/C=C/[C@H](C)[C@@H](O)C[C@@H](OC)/C=C/[C@H](C)[C@@H]([C@@H](C)[C@@H](OC)[C@@H](C)CCC(=O)[C@H](C)[C@@H](C/C=C/N(C)C=O)OC)OC(=O)/C=C/C=C(/C)C1)[C@H]2O", "note": "[SPHINXOLIDE B]", "values": [
      {"measurement": "IC90", "setting": "[1]", "result": "< 2", "unit": "µg/mL"},
      {"measurement": "IC90", "setting": "Phytophthora cinnamomi", "result": "< 2", "unit": "µg/mL"},
      {"measurement": "IC90", "setting": "[2]", "result": "< 2", "unit": "µg/mL"},
      {"measurement": "IC90", "setting": "Phytopythium vexans", "result": "< 2", "unit": "µg/mL"},
      {"measurement": "IC90", "setting": "Botrytis cinerea", "result": "< 2", "unit": "µg/mL"},
      {"measurement": "IC90", "setting": "Pyricularia oryzae", "result": "< 2", "unit": "µg/mL"},
      {"measurement": "IC90", "setting": "Fusarium", "result": "< 2", "unit": "µg/mL"},
      {"measurement": "IC90", "setting": "Alternaria alternata", "result": "< 2", "unit": "µg/mL"},
      {"measurement": "IC90", "setting": "Rhizoctonia solani", "result": "< 2", "unit": "µg/mL"},
      {"measurement": "IC90", "setting": "Oculimacula yallundae", "result": "< 2", "unit": "µg/mL"},
      {"measurement": "IC90", "setting": "Parastagonospora nodorum", "result": "< 2", "unit": "µg/mL"},
      {"measurement": "IC90", "setting": "Helminthosporium", "result": "< 2", "unit": "µg/mL"},
      {"measurement": "IC90", "setting": "Ustilago nuda", "result": "< 2", "unit": "µg/mL"}
    ]}
  ]
}
